Laboratory results as given in patent publication US4707484A, “Substituted piperidinomethylindolone and cyclopent(b)indolone derivatives” (Hoffmann-La Roche Inc., priority 1986, dated 1987).
Structures can show the parent of a compound that is named as a salt. Where two headings read alike, the source gives them in different places.

Key:
[1] = Side effect evaluation in dogs; type: in vivo, dog (beagle); conditions: oral 1 mg/kg, then one day later 10 mg/kg; observed six hours
Description: For side effect liability evaluation, pure breed beagle dogs from Marshall Inc., North Rose, N.Y., were used. Prior to dosing, the dogs were fasted for approximately 18 hrs. Dosing was orally by gelatin capsule. […] Compound of formula Ia was initially administered orally at a dose of 1 mg/kg and then one day later at an oral dose of 10 mg/kg. An experienced observer monitored these dogs for six hours, following dosing.

[2] = system: D-amphetamine hyperactivity (central nervous system dopamine receptors); test: Antagonism of D-amphetamine hyperactivity in mice; conditions: Mus musculus, read-out: Antagonism of Amphetamine Hyperactivity ED50
[3] = system: apomorphine-induced rearing; test: Antagonism of apomorphine-induced rearing in mice; conditions: for ED50: Mus musculus; for Antagonism of Apomorphine Rearing % protected at 10 mg/kg: intravenous 10 mg/kg
dopamine receptors = biological target: T1, dopamine receptors (Rattus norvegicus, UniProt P61169); test: 3H-spiroperidol binding test (rat striatal brain homogenates); conditions: 0.2 nM 3H-spiroperidol, 20 min, read-out: Binding IC50 (inhibition of 3H-spiroperidol binding to dopamine receptors)
T1 construct: rat striatal brain homogenates; from tissue; host or cells: rat striatum (brain homogenate)
Description: Dopamine receptor antagonism by compounds of formula I in vitro is determined by the ^3 H-spiroperidol binding assay. In this test, rat striatal brain homogenates were incubated for 20 minutes in the presence of 0.2 nanomolar ^3 H-spiroperidol and varying concentrations of test compounds. The incubations were terminated by rapid filtrations through Whatman GF/B filters, followed by 2×5 mL washes with ice-cold assay buffer (50 mM tribase-HCl pH 7.7 which contains fixed concentrations of 0.1% ascorbic acid, 120 mM NaCl, 5 mM KCl, 2 mM CaCl2, and 1 mM MgCl2).

cisplatin-induced emesis = test: Anti-cisplatin emesis in dogs; type: in vivo, dog (Beagle); conditions: for effectiveness against apomorphine and cisplatin emesis (in words): dogs
Description: The procedure was as follows:
In the evaluation 6 male and 6 female Beagle dogs, supplied by White Eagle Laboratories, Doylestown PA., were used. Three dogs were tested daily. Each dog received either saline-placebo, 30 ml i.v.; the compound of formula If, 10 mg/kg i.v.; or domperidone 10 mg/kg i.v. The compound of formula If was dissolved in warm sterile water for injection. Domperidone was solubilized in acetic acid and the pH was adjusted with 2N NaOH. Both drugs were diluted to an infusion volume of 30 mL with sterile water. The treatments were infused over a 30-minute (n=3) or a 60-minute (n=9) period. […] The cisplatin, 1 mg/ml dissolved in sterile water, was infused over a 10 minute period. Each treatment was given to 2 male and 2 female weight-matched dogs.
The dogs were fed Wayne dog food moistened in water, 20 grams/kg, one hour prior to treatment. During the observation period the onset, frequency and severity of vomiting episodes as well as any atypical behavioral activity was recorded.
Statistical evaluation of emetic activity was done using Student's-t test for unpaired data.

apomorphine emesis = test: Anti-apomorphine emesis in dogs; type: in vivo, dog (female Beagle); conditions: Canis lupus familiaris, po; orally, 1 hour before apomorphine HCl 0.1 mg/kg s.c.; 1 hour observation; read-out: anti-emetic ED50 (apomorphine emesis)
Description: Pure-bred female Beagle dogs (Fa. WIGA, Versuchstier-Zuchtanstalt, 8741 Sulzfeld, GFR) with an approximate body weight of 15 kg were used. All dogs were shown previously to vomit at least four times during the 60 minutes following injection of 0.1 mg/kg apomorphine .HCl s.c. into the neck. Each dog was used in 14 day intervals. Three drug sessions were followed by an apomorphine control session.
The compound of formula If was administered suspended in 5% acacia at different dose levels by oral gavage to at least 4 dogs per dose. One hour later 0.1 mg/kg apomorphine .HCl was injected s.c. and the dogs observed for a further hour for vomiting.

[4] = po, 2 h, read-out: Antagonism of Apomorphine rearing ED50
[5] = 10 mg/kg i.v., cisplatin 3 mg/kg i.v.

T1 sequence (P61169 whole entry): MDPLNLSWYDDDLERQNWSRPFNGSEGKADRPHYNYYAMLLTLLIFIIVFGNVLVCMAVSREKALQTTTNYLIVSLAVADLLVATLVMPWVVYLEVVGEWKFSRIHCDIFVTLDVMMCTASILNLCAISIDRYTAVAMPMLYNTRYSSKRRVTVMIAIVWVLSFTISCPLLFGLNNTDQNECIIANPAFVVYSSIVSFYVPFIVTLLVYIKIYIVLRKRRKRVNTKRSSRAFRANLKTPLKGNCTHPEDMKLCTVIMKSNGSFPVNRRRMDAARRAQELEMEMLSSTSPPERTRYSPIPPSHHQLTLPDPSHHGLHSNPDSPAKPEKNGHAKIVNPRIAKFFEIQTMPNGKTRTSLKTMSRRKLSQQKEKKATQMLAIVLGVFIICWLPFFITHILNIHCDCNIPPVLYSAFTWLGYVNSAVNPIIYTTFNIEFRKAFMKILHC

Row | Compound | ED50 ([2]; po, 1 h) [mg/kg] | ED50 [3, 4] [mg/kg] | IC50 (dopamine receptors) [pM] | Antagonism of Apomorphine Rearing % protected at 10 mg/kg ([3]; 4 hr after administration) [%] | Antagonism of Apomorphine Rearing % protected at 10 mg/kg ([3]; 7 hr after administration) [%] | also measured
1 | CCc1c(C)[nH]c2c1C(=O)C(CN1CCC3(CC1)C(=O)NCN3c1ccccc1)CC2 (stereo not shown) [Compound Ia, 8-[(3-ethyl-4,5,6,7-tetrahydro-2-methyl-4-oxo-1H-indol-5-yl)methyl]-1-phenyl-1,3,8-triazaspiro[4.5]-decan-4-one] | > 100 | > 100 | 95 |  |  | grossly observable abnormal signs (behavior, motor coordination) [1]: Neither dose level produced any grossly observable alteration in behavior or motor coordination nor were any other abnormal signs seen; ED50 ([2]; iv, 2 h): 15.9 mg/kg; ED50 ([2]; iv, 7 h): 8.6 mg/kg; ED50 ([3]; iv, 2 h, read-out: Antagonism of Apomorphine Rearing ED50): 7 mg/kg; ED50 ([3]; iv, 7 h, read-out: Antagonism of Apomorphine Rearing ED50): 2.3 mg/kg
2 | CC1NC(=O)C2(CCN(CC3CCc4[nH]c5c(c4C3=O)CCC5)CC2)N1c1ccccc1 (stereo not shown) [Compound Ib, 8-[(1,2,3,4,5,6,7,8-octahydro-8-oxocyclopent[b]indol-7-yl)methyl]-2-methyl-1-phenyl-1,3,8-triazaspiro[4.5]-decan-4-one] | > 100 | > 100 | 940 | 36 | 36 | 
3 | O=C1c2c([nH]c3c2CCC3)CCC1CN1CCC2(CC1)C(=O)NCN2C1CCCCC1 (stereo not shown) [Compound Ic, 8-[(1,2,3,4,5,6,7,8-octahydro-8-oxocyclopent[b]indol-7-yl)methyl]-1-cyclohexyl-1,3,8-triazaspiro[4.5]-decan-4-one] | > 100 | > 100 | 520 | 40 | 40 | 
4 | Cc1[nH]c2c(c1C)C(=O)C(CN1CCC3(CC1)C(=O)NCN3c1ccccc1)CC2 (stereo not shown) [Compound Id, 8-[4,5,6,7-tetrahydro-(2,3-dimethyl-4-oxo-1H-indol-5-yl)methyl]-1-phenyl-1,3,8-triazaspiro[4.5]decan-4-one] | 147 | 12 | 78 |  |  | ED50 ([2]; iv, 4 h): > 20 mg/kg; ED50 ([3]; iv, 4 h, read-out: Antagonism of Apomorphine Rearing ED50): 5.1 mg/kg
5 | CCc1c(C)[nH]c2c1C(=O)C(CN1CCC3(CC1)C(=O)NCN3C1CCCCC1)CC2 (stereo not shown) [Compound Ie] | 235 | 98 | 82 | 62 | 79 | 
6 | O=C1c2c([nH]c3c2CCC3)CCC1CN1CCC2(CC1)C(=O)NCN2c1ccccc1 (stereo not shown) [Compound If, 1,2,3,5,6,7-hexahydro-7-[(4-oxo-1-phenyl-1,3,8-triazaspiro[4.5]decan-8-yl)methyl]-4H-cyclopent[b]indol-8(8H)-one] | > 100 | 12 | 350 |  |  | Vomiting episodes Mean (± S.E.) 6 Hrs (cisplatin-induced emesis; [5]): 6.0 ± 1.8; Vomiting episodes Mean (± S.E.) 1 hr. (cisplatin-induced emesis; [5]): 1.0 ± 0.4; effectiveness against apomorphine and cisplatin emesis (in words) (cisplatin-induced emesis): effective against both apomorphine and cisplatin emesis in dogs; ED50 (apomorphine emesis): 0.75 mg/kg
7 | CN(C)CCCN1c2ccccc2Sc2ccc(Cl)cc21 [chloropromazine HCl, reference compound] | 2.1 | 4.9 |  |  |  | 
8 | O=c1[nH]c2ccccc2n1CCCN1CCC(n2c(=O)[nH]c3cc(Cl)ccc32)CC1 [domperidone] | 194 | 23 |  |  |  | emesis versus controls (in words) (cisplatin-induced emesis; [5]): did not differ significantly from controls; Vomiting episodes Mean (± S.E.) 6 Hrs (cisplatin-induced emesis; [5]): 12.5 ± 2.3; Vomiting episodes Mean (± S.E.) 1 hr. (cisplatin-induced emesis; [5]): 2.1 ± 0.7; effectiveness against apomorphine and cisplatin emesis (in words) (cisplatin-induced emesis): only effective against apomorphine emesis in dogs; ED50 (apomorphine emesis): 0.2 mg/kg
9 | O=C(CCCN1CCC(O)(c2ccc(Cl)cc2)CC1)c1ccc(F)cc1 [haloperidol, reference compound] | 0.23 | 0.18 |  |  |  | 
